Assay results reported in patent EP0740252A2, “Apparatus, method, and standard curve for measuring clearance” (KUREHA KAGAKU KOGYO KABUSHIKI KAISHA, priority 1995, dated 1996).
“And” between values parts separate entries of the source, which are not always exact repeats. Equal values may be shown once.

Experiments:
[1] = Meglumine iothalamate clearance by AUC method, dog; type: in vivo, female beagle dogs; settings: healthy dog 1919 (two tests at an interval of two months), 3% meglumine iothalamate solution 0.3 mℓ/kg i.v.
Procedure: A total of […] female beagle dogs (body weight: 8.5 to 14 kg) consisting of one healthy dog (dog No. 1919), three partially nephrectomized dogs (chronic renal failure model) (dog Nos. 1367, 1253, and 1104) were used.
A 3% inulin-containing iothalamate solution was administered once in the amount of 0.3 mℓ/kg to each beagle dog from its foreleg vein. The meglumine iothalamate in the 3% inulin-containing iothalamate solution was obtained by diluting a conray injection solution (60 W/V%) (meglumine iothalamate injection solution of the Japanese Pharmacopoeia, available from DAIICHI PHARMACEUTICAL CO., LTD.) with saline to adjust the concentration to 3%.
Blood collection operations were performed five times with intervals after the administration. The blood collection times were, e.g., 5 min, 20 min, 40 min, 60 min, and 90 min after the administration for the healthy dog, and, e.g., 5 min, 40 min, 80 min, 120 min, and 180 min after the administration for other dogs.
The concentration of meglumine iothalamate in the plasma was measured as follows. 400 µℓ of a 0.1N-HCl-methanol (1 : 9) solution mixture were added to 100 µℓ of a dog plasma sample, and the resultant solution was stirred well and subjected to centrifugal separation at 16,000 rpm for 10 min. The resultant supernatant was analyzed by liquid chromatography. […]

[2] = Meglumine iothalamate clearance from one plasma sample by first standard function, dog; type: in vivo, female beagle dogs; settings: healthy dog 1919 (two tests), first standard function (Fig. 18), per blood collection time (20-90 min)
Procedure: A first standard function [CL × T - Cp/D curve] was formed following the same procedures as in Example 1. The first clearance calculation program 34 was executed. In this execution, the clearances of the four dogs (two tests were conducted for dog Nos. 1919 and 1367 at an interval of two months) in Example 12 were calculated by the first standard function (Fig. 18) obtained in Example 12, using the data for the respective blood collection times (except for the values obtained 5 min after the administration). More specifically, the ratio values of the meglumine iothalamate concentrations (Cp) in the plasma samples corresponding to the respective blood collection times to the meglumine iothalamate dose (D) were calculated, and the products of the clearance (CL) and the blood collection times (T) were calculated from the first standard function using the ratio values. The products were divided by the blood collection times (T), respectively, thereby obtaining the clearances (CL).

clearance ([1]; female, beagle, dog, plasma, iv, 0.3 mℓ/kg, read-out: Conventional Method: Clearance (1)): 45.6 mL/min | Conventional Method: Clearance (1) [1]: 49.1 mL/min | clearance ([2]; female, beagle, dog, plasma, intravenous, 0.3 mℓ/kg, read-out: Method of Present Invention: Clearance (2)): 52.1 mL/min | Method of Present Invention: Clearance (2) ([2]; blood collected at 20 min): 57.4 mL/min | Method of Present Invention: Clearance (2) ([2]; blood collected at 40 min): 53.0 mL/min | Method of Present Invention: Clearance (2) ([2]; blood collected at 50 min): 48.9 mL/min | Method of Present Invention: Clearance (2) ([2]; blood collected at 60 min): 52.5 mL/min | Method of Present Invention: Clearance (2) ([2]; blood collected at 70 min): 48.4 mL/min | Method of Present Invention: Clearance (2) ([2]; blood collected at 90 min): 42.0 mL/min and 43.9 mL/min
Structure (SMILES): CNC(=O)c1c(I)c(NC(C)=O)c(I)c(C(=O)O)c1I [Iothalamic Acid, N-methylglucamine-5-acetamido-2,4,6-triiodo-N-methylisophthalate]
